Results published in patent EP4043466B1, “PRC2 INHIBITORS” (Mirati Therapeutics, Inc., priority 2018, dated 2019).

Tests used:
[1] = biological target: purified human, His-tagged PRC2 complex (Homo sapiens, UniProt O75530+Q15910); assay: Hot Spot HMT assay: inhibition of PRC2 enzymatic activity (transfer of tritiated methyl from SAM to core histone, filter binding); assay type: biochemical; conditions: Inhibition of PRC2-mediated enzymatic activity; 10 nM PRC2 complex, 0.05 mg/ml core histone H3, 1 uM 3H-SAM, 1 hr at 30°C
How it was run: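 Five-subunit complex (His-EZH2, Flag-EED, His-SUZ12, His-AEBP2, His-RbAp48) at 10 nM with 0.05 mg/ml core histone H3, pH 8 Tris buffer, 1% DMSO; 20 min compound pre-incubation at 30°C. Started with 1 uM [3H]-SAM, 1 hr at 30°C; tritiated H3 counted by scintillation. Compounds diluted from 1.0 µM top concentration.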

[2] = tested on: PRC2-mediated histone H3 methylation; assay: Tri-Methyl Histone H3 (Lys 27) Sandwich ELISA in Pfeiffer cells: inhibition of PRC2-mediated histone H3 methylation; assay type: cell-based, human; conditions: Inhibition of EZH2-mediated histone H3 trimethylation, Pfeiffer cells (EZH2 A677G), 96 hours incubation
How it was run: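 Pfeiffer DLBCL cells (EZH2 A677G mutant) treated with 3-fold serial dilutions, 1µM to 0.15 nM final, for 96 hours at 37°C. Acid (0.4M HCl) histone extracts, neutralized, assayed by H3K27me3 sandwich ELISA with HRP/TMB read at 450 nm.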

[3] = tested on: Karpas 422 cells; assay: Karpas 422 cell viability, CTG (Cell Titre Glo) assay; assay type: cell-based, human; conditions: Inhibition of proliferation of Karpas 422 cells (EZH2 Y641N), viability measured Day 4, Day 7 or Day 11, time point of the tabulated values not stated
How it was run: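 Karpas 422 cells (EZH2 Y641N, DLBCL) plated at 1000 cells/well in RPMI with 20% FBS, exposed to compound 10µM down to 1.5nM in 3-fold steps at 37 °C. Viability by CellTiter-Glo on Days 4, 7 and 11; Day 11 plates re-fed with fresh medium and compound on Day 7. IC50 per time point.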

Sequence of purified human, His-tagged PRC2 complex (Q15910 whole entry): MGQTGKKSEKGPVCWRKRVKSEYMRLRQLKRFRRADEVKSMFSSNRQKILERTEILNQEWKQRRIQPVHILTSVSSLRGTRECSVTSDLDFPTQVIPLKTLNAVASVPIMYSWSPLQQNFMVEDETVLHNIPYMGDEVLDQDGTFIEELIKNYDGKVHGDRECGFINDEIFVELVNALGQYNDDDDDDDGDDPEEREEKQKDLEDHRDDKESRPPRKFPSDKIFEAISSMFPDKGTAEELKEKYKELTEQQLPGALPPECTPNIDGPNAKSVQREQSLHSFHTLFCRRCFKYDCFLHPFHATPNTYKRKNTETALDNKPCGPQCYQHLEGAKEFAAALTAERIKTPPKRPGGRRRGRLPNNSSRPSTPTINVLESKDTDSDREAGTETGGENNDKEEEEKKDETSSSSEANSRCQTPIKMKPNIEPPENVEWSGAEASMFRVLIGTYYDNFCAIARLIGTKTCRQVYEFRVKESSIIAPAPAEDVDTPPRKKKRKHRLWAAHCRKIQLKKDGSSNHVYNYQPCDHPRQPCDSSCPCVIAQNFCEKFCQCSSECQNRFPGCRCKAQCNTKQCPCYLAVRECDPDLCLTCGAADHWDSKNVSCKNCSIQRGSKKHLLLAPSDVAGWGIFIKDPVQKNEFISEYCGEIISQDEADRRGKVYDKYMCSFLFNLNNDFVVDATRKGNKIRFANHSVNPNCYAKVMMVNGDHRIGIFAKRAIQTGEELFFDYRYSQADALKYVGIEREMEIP
Sequence of purified human, His-tagged PRC2 complex (O75530 whole entry): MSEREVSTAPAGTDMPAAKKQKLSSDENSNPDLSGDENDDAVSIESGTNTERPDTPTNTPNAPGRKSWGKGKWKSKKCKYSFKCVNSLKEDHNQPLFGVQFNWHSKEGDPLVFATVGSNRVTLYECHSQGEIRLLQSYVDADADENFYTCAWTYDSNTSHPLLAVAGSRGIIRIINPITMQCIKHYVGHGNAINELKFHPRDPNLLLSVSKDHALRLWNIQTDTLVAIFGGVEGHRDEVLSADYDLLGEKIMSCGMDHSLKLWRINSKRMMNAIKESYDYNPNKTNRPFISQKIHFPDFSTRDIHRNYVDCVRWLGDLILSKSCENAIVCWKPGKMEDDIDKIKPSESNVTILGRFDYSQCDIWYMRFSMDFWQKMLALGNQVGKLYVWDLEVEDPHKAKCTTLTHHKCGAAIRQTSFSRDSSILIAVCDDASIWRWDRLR
Sequence of purified human, His-tagged PRC2 complex (Q15022 whole entry partner): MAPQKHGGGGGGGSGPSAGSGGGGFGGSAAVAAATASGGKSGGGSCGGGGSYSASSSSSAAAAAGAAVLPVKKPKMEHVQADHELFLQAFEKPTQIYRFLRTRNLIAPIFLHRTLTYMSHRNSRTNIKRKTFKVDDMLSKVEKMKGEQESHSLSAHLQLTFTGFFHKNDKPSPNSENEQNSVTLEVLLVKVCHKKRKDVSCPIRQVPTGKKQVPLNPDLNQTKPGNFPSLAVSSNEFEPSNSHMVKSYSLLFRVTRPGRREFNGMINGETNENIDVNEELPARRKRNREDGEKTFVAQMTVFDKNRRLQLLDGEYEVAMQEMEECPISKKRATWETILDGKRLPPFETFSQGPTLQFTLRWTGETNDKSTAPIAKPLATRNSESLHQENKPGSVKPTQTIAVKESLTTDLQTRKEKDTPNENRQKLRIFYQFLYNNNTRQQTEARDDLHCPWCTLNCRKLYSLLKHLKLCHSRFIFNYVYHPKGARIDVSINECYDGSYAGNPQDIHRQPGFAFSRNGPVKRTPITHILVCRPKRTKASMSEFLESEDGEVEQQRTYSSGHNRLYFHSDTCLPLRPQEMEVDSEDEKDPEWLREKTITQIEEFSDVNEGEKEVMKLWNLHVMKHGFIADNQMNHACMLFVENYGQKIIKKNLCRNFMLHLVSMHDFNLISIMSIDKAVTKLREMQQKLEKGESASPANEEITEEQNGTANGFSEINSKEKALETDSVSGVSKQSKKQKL
Sequence of purified human, His-tagged PRC2 complex (Q6ZN18 whole entry partner): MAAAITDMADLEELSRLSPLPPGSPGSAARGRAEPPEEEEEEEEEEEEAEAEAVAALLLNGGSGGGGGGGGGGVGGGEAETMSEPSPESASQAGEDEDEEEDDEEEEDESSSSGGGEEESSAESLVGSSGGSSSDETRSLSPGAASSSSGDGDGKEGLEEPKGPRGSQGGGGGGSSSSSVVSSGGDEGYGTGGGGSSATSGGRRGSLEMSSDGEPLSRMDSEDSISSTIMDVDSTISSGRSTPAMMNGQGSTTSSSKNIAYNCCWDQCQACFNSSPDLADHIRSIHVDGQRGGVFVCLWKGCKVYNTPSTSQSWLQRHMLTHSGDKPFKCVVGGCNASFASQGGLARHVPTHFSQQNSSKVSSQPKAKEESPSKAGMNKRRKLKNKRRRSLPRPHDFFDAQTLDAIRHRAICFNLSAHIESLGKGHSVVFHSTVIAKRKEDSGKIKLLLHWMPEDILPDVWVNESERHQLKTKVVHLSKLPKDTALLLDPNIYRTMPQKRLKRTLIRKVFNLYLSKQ
Sequence of purified human, His-tagged PRC2 complex (Q09028 whole entry partner): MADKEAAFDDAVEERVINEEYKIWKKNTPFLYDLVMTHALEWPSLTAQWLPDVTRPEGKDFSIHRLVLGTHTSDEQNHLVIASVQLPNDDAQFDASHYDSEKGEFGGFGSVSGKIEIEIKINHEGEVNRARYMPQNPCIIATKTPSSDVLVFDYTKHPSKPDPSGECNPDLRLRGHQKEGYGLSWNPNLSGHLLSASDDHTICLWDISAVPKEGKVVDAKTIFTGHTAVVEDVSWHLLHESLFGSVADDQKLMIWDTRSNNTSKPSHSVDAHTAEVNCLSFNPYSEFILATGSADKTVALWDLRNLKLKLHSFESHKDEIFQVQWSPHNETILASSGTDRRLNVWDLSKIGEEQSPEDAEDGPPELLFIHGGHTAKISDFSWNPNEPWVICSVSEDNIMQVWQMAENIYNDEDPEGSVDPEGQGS

Row | Compound | IC50 [1] [µM] | IC50 ([2]; Homo sapiens) [µM] | IC50 ([3]; Homo sapiens) [µM] | IC50 [2] [µM] | IC50 [3] [µM]
1 | CN(C)CCOc1ccc(-c2cnc(NCc3c(F)ccc4c3CCO4)n3cc(C#N)nc23)cc1 [Example 189, 8-(4-(2-(dimethylamino)ethoxy)phenyl)-5-(((5-fluoro-2,3-dihydrobenzofuran-4-yl)methyl)amino)imidazo[1,2-c]pyrimidine-2-carbonitrile] | 0.1 to 0.5 | 0.1 to 0.5 | ≤ 0.25 |  | 
2 | CN(C)Cc1cc(F)c(-c2cnc(NCc3c(F)ccc4c3CCO4)n3cc(C#N)nc23)cc1F [Example 39, 8-(4-((dimethylamino)methyl)-2,5-difluorophenyl)-5-(((5-fluoro-2,3-dihydrobenzofuran-4-yl)methyl)amino)imidazo[1,2-c]pyrimidine-2-carbonitrile] | < 0.1 | ≤ 0.1 | ≤ 0.25 |  | 
3 | N#Cc1cn2c(NCc3c(F)ccc4c3CCO4)ncc(-c3ccc(S(N)(=O)=O)cc3)c2n1 [Example 47, 4-(2-cyano-5-(((5-fluoro-2,3-dihydrobenzofuran-4-yl)methyl)amino)imidazo[1,2-c]pyrimidin-8-yl)benzenesulfonamide] | < 0.1 | ≤ 0.1 | ≤ 0.25 |  | 
4 | CN1CCCC1c1ccc(-c2cnc(NCc3c(F)ccc4c3CCO4)n3cc(C#N)nc23)cc1 (stereo not drawn) [Example 160, 5-(((5-fluoro-2,3-dihydrobenzofuran-4-yl)methyl)amino)-8-(4-(1-methylpyrrolidin-2-yl)phenyl)imidazo[1,2-c]pyrimidine-2-carbonitrile] | < 0.1 | ≤ 0.1 | ≤ 0.25 |  | 
5 | CN(C)Cc1ccc(-c2cnc(NCc3c(F)ccc4c3CCO4)n3cc(C#N)nc23)cc1C#N [Example 201, 8-(3-cyano-4-((dimethylamino)methyl)phenyl)-5-(((5-fluoro-2,3-dihydrobenzofuran-4-yl)methyl)amino)imidazo[1,2-c]pyrimidine-2-carbonitrile] | < 0.1 | 0.1 to 0.5 | ≤ 0.25 |  | 
6 | CN(C)C(=O)c1ccc(-c2cnc(NCc3c(F)ccc4c3CCO4)n3cc(C#N)nc23)cc1 [Example 180, 4-(2-cyano-5-(((5-fluoro-2,3-dihydrobenzofuran-4-yl)methyl)amino)imidazo[1,2-c]pyrimidin-8-yl)-N,N-dimethylbenzamide] | < 0.1 | ≤ 0.1 | ≤ 0.25 |  | 
7 | N#Cc1cn2c(NCc3c(F)ccc4c3CCO4)ncc(-c3cc[nH]c(=O)c3)c2n1 [Example 218, 5-(((5-fluoro-2,3-dihydrobenzofuran-4-yl)methyl)amino)-8-(2-oxo-1,2-dihydropyridin-4-yl)imidazo[1,2-c]pyrimidine-2-carbonitrile] | < 0.1 | 0.1 to 0.5 | 0.25 to 0.5 |  | 
8 | N#Cc1cn2c(NCc3c(F)ccc4c3CCO4)ncc(-c3cnn(CCO)c3)c2n1 [Example 182, 5-(((5-fluoro-2,3-dihydrobenzofuran-4-yl)methyl)amino)-8-(1-(2-hydroxyethyl)-1H-pyrazol-4-yl)imidazo[1,2-c]pyrimidine-2-carbonitrile] | 0.1 to 0.5 | 0.1 to 0.5 | ≤ 0.25 |  | 
9 | CN(C)C1(c2ccc(-c3cnc(NCc4c(F)ccc5c4CCO5)n4cc(C#N)nc34)cc2)CC1 [Example 171, 8-(4-(1-(dimethylamino)cyclopropyl)phenyl)-5-(((5-fluoro-2,3-dihydrobenzofuran-4-yl)methyl)amino)imidazo[1,2-c]pyrimidine-2-carbonitrile] | < 0.1 | 0.1 to 0.5 | ≤ 0.25 |  | 
10 | Cn1nccc(-c2cnc(NCc3c(F)ccc4c3CCO4)n3cc(C#N)nc23)c1=O [Example 194, 5-(((5-fluoro-2,3-dihydrobenzofuran-4-yl)methyl)amino)-8-(2-methyl-3-oxo-2,3-dihydropyridazin-4-yl)imidazo[1,2-c]pyrimidine-2-carbonitrile] | 0.1 to 0.5 | 0.1 to 0.5 | ≤ 0.25 |  | 
11 | Cn1nc(C2CC2)cc1-c1cnc(NCc2c(F)ccc3c2CCO3)n2cc(C#N)nc12 [Example 144, 8-(3-cyclopropyl-1-methyl-1H-pyrazol-5-yl)-5-(((5-fluoro-2,3-dihydrobenzofuran-4-yl)methyl)amino)imidazo[1,2-c]pyrimidine-2-carbonitrile] | < 0.1 | 0.1 to 0.5 | ≤ 0.25 |  | 
12 | CCOP(=O)(OCC)c1ccc(-c2cnc(NCc3c(F)ccc4c3CCO4)n3cc(C#N)nc23)cc1 [Example 164, diethyl (4-(2-cyano-5-(((5-fluoro-2,3-dihydrobenzofuran-4-yl)methyl)amino)imidazo[1,2-c]pyrimidin-8-yl)phenyl)phosphonate] | < 0.1 | ≤ 0.1 | ≤ 0.25 |  | 
13 | Cc1ccc(-c2cnc(NCc3c(F)ccc4c3CCO4)n3cc(C#N)nc23)c(C)c1 [Example 192, 8-(2,4-dimethylphenyl)-5-(((5-fluoro-2,3-dihydrobenzofuran-4-yl)methyl)amino)imidazo[1,2-c]pyrimidine-2-carbonitrile] | > 0.5 | > 0.5 | > 0.5 |  | 
14 | Cc1ncccc1-c1cnc(NCc2c(F)ccc3c2CCO3)n2cc(C#N)nc12 [Example 105, 5-(((5-fluoro-2,3-dihydrobenzofuran-4-yl)methyl)amino)-8-(2-methylpyridin-3-yl)imidazo[1,2-c]pyrimidine-2-carbonitrile] | < 0.1 | ≤ 0.1 | ≤ 0.25 |  | 
15 | N#Cc1cn2c(NCc3c(F)ccc4c3CCO4)ncc(-c3ccc(C4CCCN4)cc3)c2n1 (stereo not drawn) [Example 204, 5-(((5-fluoro-2,3-dihydrobenzofuran-4-yl)methyl)amino)-8-(4-(pyrrolidin-2-yl)phenyl)imidazo[1,2-c]pyrimidine-2-carbonitrile] | 0.1 to 0.5 | ≤ 0.1 | ≤ 0.25 |  | 
16 | [2H]C([2H])([2H])N(Cc1ccc(-c2cnc(NCc3c(F)ccc4c3CCO4)n3cc(C#N)nc23)c(C)c1)C([2H])([2H])[2H] [Example 202, 8-(4-((bis(methyl-d3)amino)methyl)-2-methylphenyl)-5-(((5-fluoro-2,3-dlhydrobenzofuran-4-yl)methyl)amino)imidazo[1,2-c]pyrimidine-2-carbonitrile] | < 0.1 | ≤ 0.1 | ≤ 0.25 |  | 
17 | 5-(((5-fluoro-2,3-dihydrobenzofuran-4-yl)methyl)amino)-8-(2-methylpyridin-4-yl)imidazo[1,2-c]pyrimidine-2-carbonitrile [Example 178] | 0.1 to 0.5 |  |  | 0.1 to 0.5 | ≤ 0.25
18 | CNC(=O)c1ccc(-c2cnc(NCc3c(F)ccc4c3CCO4)n3cc(C#N)nc23)cc1 [Example 186, 4-(2-cyano-5-(((5-fluoro-2,3-dihydrobenzofuran-4-yl)methyl)amino)imidazo[1,2-c]pyrimidin-8-yl)-N-methylbenzamide] | < 0.1 | 0.1 to 0.5 | ≤ 0.25 |  | 
19 | COCCOc1ccc(-c2cnc(NCc3c(F)ccc4c3CCO4)n3cc(C#N)nc23)cn1 [Example 158, 5-(((5-fluoro-2,3-dihydrobenzofuran-4-yl)methyl)amino)-8-(6-(2-methoxyethoxy)pyridin-3-yl)imidazo[1,2-c]pyrimidine-2-carbonitrile] | 0.1 to 0.5 | 0.1 to 0.5 | 0.25 to 0.5 |  | 
20 | CN(C)C(=O)c1cc(F)c(-c2cnc(NCc3c(F)ccc4c3CCO4)n3cc(C#N)nc23)cc1F [Example 38, 4-(2-cyano-5-(((5-fluoro-2,3-dihydrobenzofuran-4-yl)methyl)amino)imidazo[1,2-c]pyrimidin-8-yl)-2,5-difluoro-N,N-dimethylbenzamide] | < 0.1 | ≤ 0.1 | ≤ 0.25 |  | 
21 | N#Cc1cn2c(NCc3c(F)ccc4c3CCO4)ncc(-c3ccncn3)c2n1 [Example 57, 5-(((5-fluoro-2,3-dihydrobenzofuran-4-yl)methyl)amino)-8-(pyrimidin-4-yl)imidazo[1,2-c]pyrimidine-2-carbonitrile] | < 0.1 | 0.1 to 0.5 | ≤ 0.25 |  | 
22 | Cn1nc(C#N)cc1-c1cnc(NCc2c(F)ccc3c2CCO3)n2cc(C#N)nc12 [Example 212, 8-(3-cyano-1-methyl-1H-pyrazol-5-yl)-5-(((5-fluoro-2,3-dihydrobenzofuran-4-yl)methyl)amino)imidazo[1,2-c]pyrimidine-2-carbonitrile] | < 0.1 | ≤ 0.1 | ≤ 0.25 |  | 
23 | Cc1cc(CN(C)C)ccc1-c1cnc(NCc2c(F)ccc3c2CCO3)n2cc(C#N)nc12 [Example 32, 8-(4-((dimethylamino)methyl)-2-methylphenyl)-5-(((5-fluoro-2,3-dihydrobenzofuran-4-yl)methyl)amino)imidazo[1,2-c]pyrimidine-2-carbonitrile] | 0.1 to 0.5 | ≤ 0.1 | ≤ 0.25 |  | 
24 | Cc1ncccc1-c1cnc(NCc2c(F)ccc3c2CCO3)n2cc(C(N)=O)nc12 [Example 137, 5-(((5-fluoro-2,3-dihydrobenzofuran-4-yl)methyl)amino)-8-(2-methylpyridin-3-yl)imidazo[1,2-c]pyrimidine-2-carboxamide] | < 0.1 | 0.1 to 0.5 | ≤ 0.25 |  | 
